Measurements reported in US20260159474A1, “Aminoindane Compounds and Compositions and Methods of Their Therapeutic Use” (Solvonis Therapeutics Ireland Holdings Limited, priority 2021, published 2026).

Assay: Brain tissue binding by equilibrium dialysis, rat brain homogenate
Format: in vitro ADME
Conditions: male, Sprague Dawley, pH 7.4, read-out: Rat brain tissue binding (Fu %)
Description: Methods: Plasma protein binding and blood tissue binding of test items (0.5 μM) was determined using biological samples from male Sprague Dawley (SD) rats and humans. […] Dexamethasone was used as a control compound for lung tissue binding. Various biological samples were spiked with test compounds according to the methods that follow.
Preparation of brain homogenate samples: Test items were dissolved in DMSO (or an appropriate solvent) to give a 10 mM solution. Further dilutions, to obtain […] working solutions (WS), were then prepared using 50% acetonitrile in Milli Q water. These 100×WS were used to spike the brain homogenate to obtain a final concentration of 5 μM. From this initial spiking solution, control samples (n=3) referred to as T=0, were immediately extracted by protein precipitation.
An equilibrium dialysis method was performed to determine protein binding in the various biological samples described herein. Materials were prepared and methods were in accordance with the following procedures.
Membranes were prepared for use in the equilibrium dialysis experiment. by soaking in deionized water for at least 60 minutes. After this period, 20% of pure ethanol was added, and the membranes were left in this solution for at least 20 minutes. The membranes were then rinsed in Milli-Q water prior to use.
To initiate the experiment, 150 μL of test item-free buffer (isotonic phosphate buffer for plasma and blood, artificial CSF buffer for brain or HBSS buffer for lung) was dispensed on one half-well of a 96-well dialyzer apparatus (HTDialysis LLC), and 150 μL of spiked matrix (plasma, blood, brain or lung) was loaded on the other half-well. Alternative volumes may be used according to the operating instructions of HTDialysis.
The artificial cerebrospinal fluid (CSF) buffer was prepared as follows, NaCl 3.652 g, KCl 93.2 mg, MgCl2 119.96 mg, CaCl2 92.61 mg, Na2HPO4*H2O 268.0 mg. These were dissolved in […] of MilliQ water, and the pH was adjusted to a pH of 7.4 with H3PO4.
Dialysis buffer was prepared by dissolving Na2HPO4 8.69 g, KH2PO4 1.90 g, and NaCl 4.11 g in […] of MilliQ water, and adjusting the pH to 7.4 with H3PO4. […]
Samples were then injected onto an HPLC MS/MS or UPLC MS/MS system. In order to control the integrity of the membrane after the dialysis process, the presence of protein was assessed in the buffer compartment. […]
Samples were analyzed in a LC-MS/MS system using an analytical method to monitor the compound to internal standard peak area ratios as representative of the compound concentrations. Alternatively, samples were analyzed by RapidFire. […]

Row | SMILES | fraction unbound at 5 h, 5 μM
1 | COC(=O)c1cc2c(cc1OC)CC(N)C2 (stereo not shown) [CMP-401] | > 0.5
2 | COC(=O)c1ccc2c(c1)CC(N)C2 (stereo not shown) [CMP-405, 2-aminoindane-5-methylcarboxylate] | 0.24
3 | COc1ccc2c(c1)CC(N)C2 (stereo not shown) [MEAI, 5-methoxy-2-aminoindane] | 0.33
4 | COc1cc2c(cc1C)CC(N)C2 (stereo not shown) [MMAI, 5-methoxy-6-methyl-2-aminoindane] | 0.12
